Here are results for 5 compounds from patent US20240122938A1, “METHODS AND COMPOSITIONS FOR TREATING UVEAL MELANOMA” (INSERM (INSTITUT NATIONAL DE LA SANTÉ ET DE LA RECHERCHE …, priority 2019, published 2024).

One data set has as its system OMM1 cells. Briefly: Cell proliferation assay. The format is cell-based, human. The protocol: (§1) Human uveal melanoma cell lines and short-term cultures derived from different patients with metastatic malignant melanoma cells were grown in DMEM supplemented with 7% FBS at 37° C. in a humidified atmosphere containing 5% CO2. Lipofectamine™ RNAiMAX and opti-MEM medium were purchased from Invitrogen (San Diego, CA, USA). ABT-263 was obtained from Euromedex and qVD from Clinisciences.

A further data set deals with primary melanoma cells. Briefly: Cell proliferation assay. As to conditions: data not shown. The format is cell-based, human. The protocol: as §1
The test system of data set [1] is OMM2,5 metastatic melanoma cells. Briefly: Cell proliferation assay. The format is cell-based, human. The method, then:
as §1

In a further data set the test system is 92.1 cells. The data set is described as follows: Cell death / apoptosis. The format is cell-based, human. As to conditions: data not shown. The protocol: (§2) Cells were seeded at a density of 100 000 cells/well, in 6-well plate and treated with ABT-263 for indicated time. Cells were harvested using accutase enzyme, washed twice with ice-cold phosphate-buffered saline, resuspended in a buffer (Hepes 250 mM, NaCl 150 mM, KCl 5 mM, MgCl2 2 mM, CaCl2) 2 mM) with DAPI (1 μg/ml) and Annexin V-Alexa Fluor 647 conjugate (1/100) and incubated for 15 minutes at room temperature (25° C.) in the dark. Samples were immediately analyzed by a flow cytometer (MACS QUANT) using a laser at 405 nm excitation with a bandpass filter at 425 nm and 475 nm for DAPI detection and a laser at 635 nm excitation with a bandpass filter at 650 nm and 665 nm for Alexa Fluor 647 dye. Annexin and DAPI mono- or double positive cells were counted as dead cells.

The subject of the next data set is Mel270 cells. The data set is described as follows: Cell death / alive cells by Annexin V/DAPI FACS. The format is cell-based, human. As to conditions: GSK2606414 5 μM, 48 h. The protocol: FIG. 5: PERK dampens ABT-263 killing activity. (A) Q-PCR analysis of PERK level in Mel270 uveal melanoma cells treated with control (siCtl) or PERK (siPERK) siRNA for 48 hr. (B) Mel270 cells were treated with control (siCtl) or PERK (siPERK) siRNA for 48 hrs before being exposed to ABT-263 3 μM for 48 hr. FACS analyses of Annexin V/DAPI double staining in […] indicate alive (white) or dead (early, late apoptosis and necrosis in light grey) cells. (C) Mel270 cells were treated with ABT-263 5 μM or GSK2606414 5 μM alone or in combination for 48 h.
as §2

For data set [2], the system named is ER stress molecules in Mel270 cells. The data set is described as follows: Western blot of ER stress molecules. The format is cell-based, human. The method, then: Western blot of ER stress molecules in Mel270 cells treated with ABT-263 5 μM in the absence or presence of QVD-OPh 20 μM. Representative western blot are shown.
(§3) Western blotting was performed as previously described 25,26. Briefly, cell lysates (30 μg) were separated using SDS-PAGE, transferred onto a PVDF membrane and subsequently exposed to the appropriate antibodies, anti-BCL2 (ms-123-PO) was from neomarker, anti-caspase 3 (#610323) was from BD, anti-BAX (#8429) was from sigma, anti-PARP (#9542), anti-BCL-XL (#2762), anti-caspase 9 (#9502) and anti-PUMA (#4976) were from Cell Signaling Technology Inc, anti-MCL1 (#sc-819), anti-NOXA (#56169), and anti-HSP90 (#sc-13119) were from Santa Cruz biotechnology. The proteins were visualized using the ECL system (Amersham).
In general terms: Immunoblotting shows a protein as a band on a membrane.

The subject of data set [3] is Mel270 uveal melanoma cells. The data set is described as follows: Mitochondrial membrane potential by TMRE staining. The format is cell-based, human. As to conditions: Mel270 cells. The method, then: (§4) FIG. 1. ABT-263 induces apoptosis of uveal melanoma cells. Detection of the mitochondrial membrane potential using TMRE staining in Mel270 and OMM1 uveal melanoma cells exposed to ABT-263 3 μM or 5 μM for 48 h in the absence or presence of QVD-OPh 20 μM.

Data set [4] relates to OMM1 uveal melanoma cells. The data set is described as follows: Mitochondrial membrane potential by TMRE staining. The format is cell-based, human. As to conditions: OMM1 cells. The protocol:
as §4

For data set [5], the system named is panel of human uveal melanoma cell lines. Briefly: Cell death by Annexin V/DAPI staining with qVD. The format is cell-based. Particulars: all cell lines. The method, then:
as §2

The test system of data set [6] is PARP, caspase 9 and caspase 3 in primary and metastatic uveal melanoma cells. Briefly: Western blot of PARP and caspases. The format is cell-based, human. As to conditions: pretreatment with pan caspase inhibitor.
Data set [7] deals with ER stress molecules in metastatic human uveal melanoma cells. Briefly: Western blot of ER stress molecules. As to conditions: OMM1. The format is cell-based. The protocol:
as §3, with “(Amersham). The western blots shown are representative of at least 3 independent experiments.” for “(Amersham).”

With `CC1(C)CCC(CN2CCN(c3ccc(C(=O)NS(=O)(=O)c4ccc(NCC5CCOCC5)c([N+](=O)[O-])c4)c(Oc4cnc5[nH]ccc5c4)c3)CC2)=C(c2ccc(Cl)cc2)C1` [ABT-199], the proliferation inhibition in the data set on OMM1 cells (OMM1 cells, data not shown) came to 15%.

As to `CN(C)CC[C@H](CSc1ccccc1)Nc1ccc(S(=O)(=O)NC(=O)c2ccc(N3CCN(Cc4ccccc4-c4ccc(Cl)cc4)CC3)cc2)cc1[N+](=O)[O-]` [ABT-737], the proliferation entry (in the data set on OMM1 cells (OMM1 metastatic melanoma cells); in data set [1]) was “strongly reduced proliferation” each time. Also, in the data set with primary melanoma cells, the “proliferation, response of primary melanoma cells” value is given as “highly resistant”.

Turning to `Cn1cc(-c2ccc3c(c2)CCN3C(=O)Cc2cccc(C(F)(F)F)c2)c2c(N)ncnc21` [GSK2606414], the “sensitivity of 92.1 cells to ABT-263 with GSK2606414” value in the data set on 92.1 cells is “resensitized”. Besides, in the data set with Mel270 cells, the “viable cells, alone” value was “no effect”. Further, the “CHOP and ATF4 accumulation” value in data set [2] (cell line not stated, data not shown) is “inhibited CHOP and ATF4 accumulation”.

For the compound `CC(C)[C@H](NC(=O)c1ccc2ccccc2n1)C(=O)N[C@@H](CC(=O)O)C(=O)COc1c(F)cccc1F` [qVD], the entries for the “effect of qVD on mitochondrial membrane depolarization after ABT-263” value in data set [3] and in data set [4] were “did not prevent it” and “prevented mitochondrial membrane depolarization”, respectively. Further, in [5], the “effect of qVD on ABT-263 cytotoxicity” value is reported as “protective effect”. Besides, the “effect of qVD on ABT-263 mediated change in ER molecules” value in data set [2] (Mel270, QVD-OPh 20 μM) is listed as “did not impact”. In addition, in data set [6], the “PARP and caspase cleavage under ABT-263 after QVD pretreatment” value is “prevented PARP and caspase cleavage”.

For the compound tunicamycin, the CHOP stimulation entry in data set [7] is reported as “able to stimulate CHOP”.
